The target in assay [1] is T1, butyrylcholinesterase (BChE) (Homo sapiens, UniProt P06276). The assay can be described thus: Butyrylcholinesterase inhibition, Ellman's assay. In kind it is biochemical. On the procedure: (§1) AChE and BChE were used as representative enzymes to determine the anticholinesterase effect of isolated compounds using Ellman’s assay with slight modifications. Sample stocks (5 mg/5 mL in methanol) were prepared and a range of serial dilutions (125, 250, 500, 1000 μg/mL) was made from each of them. Phosphate buffer (6.8 pH) was used for making the enzyme and substrate solutions.
T1 sequence (P06276 29-602, species assumed): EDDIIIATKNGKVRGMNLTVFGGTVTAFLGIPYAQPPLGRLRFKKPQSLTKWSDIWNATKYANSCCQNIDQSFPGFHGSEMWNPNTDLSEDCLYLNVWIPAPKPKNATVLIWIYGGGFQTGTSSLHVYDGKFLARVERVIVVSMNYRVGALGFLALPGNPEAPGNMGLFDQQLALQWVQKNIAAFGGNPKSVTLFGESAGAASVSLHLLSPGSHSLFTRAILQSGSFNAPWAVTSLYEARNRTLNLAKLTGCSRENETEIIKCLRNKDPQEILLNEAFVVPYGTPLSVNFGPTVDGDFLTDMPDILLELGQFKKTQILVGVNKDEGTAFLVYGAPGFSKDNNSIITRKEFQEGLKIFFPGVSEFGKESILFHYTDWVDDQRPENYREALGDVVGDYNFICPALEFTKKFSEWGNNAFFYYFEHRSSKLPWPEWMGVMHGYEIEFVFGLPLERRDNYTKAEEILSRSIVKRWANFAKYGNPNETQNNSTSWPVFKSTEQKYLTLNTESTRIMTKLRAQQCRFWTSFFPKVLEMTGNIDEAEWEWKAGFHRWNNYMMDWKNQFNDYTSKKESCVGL
(In general: DTNB colorimetry detects thiols as they appear.)

Assay [2] can be described thus: DPPH free radical scavenging assay. Conditions: for DPPH Percent Inhibition (Mean ± S.E.M): n = 3. On the procedure: (§2) The free radical scavenging capacity of the isolated compounds was determined using DPPH and ABTS assays. To prepare the DPPH stock solution, 30 mg of DPPH was dissolved in 100 mL of methanol. Likewise, to prepare ABTS stock solution, 383 mg of 7 mM ABTS and 66.2 mg of 2.45 mM K2S2O8 were taken, each of them was individually dissolved in 100 mL of methanol and mixed together thoroughly. For the free radical development, the solutions were kept in dark for one day. Different dilutions (62.5, 125, 250, 500, 1000 μg/mL) from each of the sample stock solutions (5 mg/5 mL of methanol) were prepared. Each of the dilutions (0.8 mL) was mixed with 0.8 mL of DPPH stock solution and incubated for 15 min and their absorbance was recorded at 515 nm. Likewise, 0.8 mL of each of the same dilutions was mixed with 2 mL of ABTS solution, incubated for 25 min and their absorbance was recorded at 745 nm. The percent scavenging potentials of compounds were calculated using the following equation:(1) Percent scavenging= A−B/A × 100, where A is the absorbance of oxidized stock (DPPH/ABTS) used as control, and B is the absorbance of the sample.
For orientation: The DPPH test is a chemical assay of radical scavenging.

In assay [3] the target is T2, acetylcholinesterase (AChE) (Homo sapiens, UniProt P22303). In words: biochemical. How it is done: as §1
T2 sequence (P22303 32-614, species assumed): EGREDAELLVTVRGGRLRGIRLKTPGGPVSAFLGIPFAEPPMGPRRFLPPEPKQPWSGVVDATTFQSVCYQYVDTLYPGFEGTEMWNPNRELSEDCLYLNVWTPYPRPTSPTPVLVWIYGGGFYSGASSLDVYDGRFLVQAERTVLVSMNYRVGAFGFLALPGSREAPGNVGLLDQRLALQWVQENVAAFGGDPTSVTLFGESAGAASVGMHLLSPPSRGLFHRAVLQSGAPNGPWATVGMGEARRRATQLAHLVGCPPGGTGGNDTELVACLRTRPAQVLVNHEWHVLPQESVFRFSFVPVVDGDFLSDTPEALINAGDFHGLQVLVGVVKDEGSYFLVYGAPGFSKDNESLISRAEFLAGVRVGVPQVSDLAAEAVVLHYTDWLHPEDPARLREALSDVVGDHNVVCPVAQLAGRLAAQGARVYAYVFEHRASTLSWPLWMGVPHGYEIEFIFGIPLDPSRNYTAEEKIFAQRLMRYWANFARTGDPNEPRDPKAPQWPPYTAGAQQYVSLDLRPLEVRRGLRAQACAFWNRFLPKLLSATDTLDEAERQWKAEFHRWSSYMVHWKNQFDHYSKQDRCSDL
The target in assay [4] is T2, acetylcholinesterase (AChE). The assay can be described thus: biochemical. The conditions noted are these: read-out: Percent AChE (Mean ± SEM), %inhibition.
A short description of assay [5]: ABTS free radical scavenging assay. Conditions: for ABTS Percent Inhibition (Mean ± S.E.M): n = 3. On the procedure: as §2
For a further assay, the target named is α-amylase. In words: α-Amylase inhibition assay (DNS method). Type of assay: biochemical. Conditions: for Percent Inhibition of α-Amylase (Mean ± S.E.M): n = 3. On the procedure: The degree of inhibition was assessed by quantifying maltose equivalents using a slightly modified dinitrosalicylic acid (DNS) method. From each of the sample dilutions, 1 mL was pre-incubated with 1 U/mL α-amylase for half an hour. After incubation, 1 mL of 1% of starch solution was added to the mixture and further incubated for 10 min. To stop the reaction, 1 mL DNS reagent was added to the reaction mixture and heated in a boiling water bath for 5 min. […] The absorbance was measured at 540 nm.

In assay [6] the target is T1, butyrylcholinesterase (BChE). The assay can be described thus: Butyrylcholinesterase inhibition, Ellman's assay. The conditions noted are these: read-out: Percent BChE (Mean ± SEM), %inhibition. Type of assay: biochemical.
Another assay deals with α-glucosidase (Saccharomyces cerevisiae, UniProt P53341). The assay can be described thus: α-Glucosidase inhibition assay. Type of assay: biochemical. How it is done:
α-Glucosidase (0.5 unit/mL) was mixed with phosphate buffer (0.1 M, pH 6.9) to make enzyme stock solution. Likewise, a substrate solution (p-nitrophenyl-α-D-glucopyranoside) was also prepared in phosphate buffer. Each of the sample dilutions was mixed with 1 mL of the enzyme solution separately and incubated at 37 °C for 15 min. Sodium carbonate solution (80 µL of 0.2 M) was added to the reaction mixture to stop the reaction, and the absorbance was measured at 405 nm. The % enzyme inhibition was calculated as (5) % inhibition=Control absorbance−Test absorbance /Control absorbance × 100

Where [7] appears, read: read-out: Percent BChE (Mean ± SEM), %inhibition.
[8] abbreviates: read-out: Percent AChE (Mean ± SEM), %inhibition.

Several values for one entry are separate records, joined by “and”; a condition that tells them apart may be missing. Identical values can stand only once.

Sequence of α-glucosidase (P53341 whole entry): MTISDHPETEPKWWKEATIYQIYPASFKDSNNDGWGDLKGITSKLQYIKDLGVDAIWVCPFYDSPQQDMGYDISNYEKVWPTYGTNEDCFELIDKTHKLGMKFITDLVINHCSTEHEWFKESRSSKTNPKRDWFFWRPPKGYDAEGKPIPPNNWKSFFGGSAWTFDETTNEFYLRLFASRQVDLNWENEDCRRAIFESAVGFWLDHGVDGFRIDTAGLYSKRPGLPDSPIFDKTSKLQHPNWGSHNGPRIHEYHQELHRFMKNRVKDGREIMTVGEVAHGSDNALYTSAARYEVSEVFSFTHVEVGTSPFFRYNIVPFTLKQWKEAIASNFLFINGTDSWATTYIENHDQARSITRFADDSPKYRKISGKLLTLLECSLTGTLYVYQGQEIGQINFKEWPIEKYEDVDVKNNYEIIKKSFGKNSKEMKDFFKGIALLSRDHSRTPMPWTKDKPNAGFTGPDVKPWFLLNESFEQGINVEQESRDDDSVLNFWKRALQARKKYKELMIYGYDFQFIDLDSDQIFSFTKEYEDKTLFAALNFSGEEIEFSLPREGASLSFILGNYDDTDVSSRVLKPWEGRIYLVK

With `CCCCCCCCCCCCCCCCCCCCCC(=O)O` [Compound X, docosanoic acid], the IC50 in assay [1] and in assay [3] was 382 µM throughout. Besides, the inhibition – broadly, the change of the read-out against control, counted positive when it falls – at 125 µg/mL stood at 49.13 ± 0.31% in assay [1] (setting [7]) and 49.3 ± 2.32% in assay [3] (setting [8]). The inhibition at 250 µg/mL amounted to 55.5 ± 0.8% in assay [1] (setting [7]) and 56.1 ± 1.51% in assay [3] (setting [8]). Also, the inhibition at 500 µg/mL in assay [1] (setting [7]) was found to be 62 ± 0.78%; in assay [3] (setting [8]) it was 62.5 ± 1.37%. The values for the inhibition at 1000 µg/mL in assay [1] (setting [7]) and in assay [3] (setting [8]) were 69.1 ± 2.01% and 70.1 ± 1.4%, respectively. Further, the “DPPH IC50” value in assay [2] was determined as 95 µg/mL. The “DPPH Percent Inhibition (Mean ± S.E.M)” value in assay [2] (62.5 μg/mL) was found to be 46.17 ± 3.01%; in assay [2] (250 μg/mL), 60.61 ± 0.71%; in assay [2] (500 μg/mL), 69.19 ± 2.27%; in assay [2] (1000 μg/mL), 78.81 ± 2.10%. The inhibition at 62.5 µg/mL came out at 43.2 ± 3.01% in assay [4] and 43 ± 1.06% in assay [6]. Also, in assay [5], the “ABTS IC50” value amounted to 95 µg/mL. In addition, the “ABTS Percent Inhibition (Mean ± S.E.M)” value in assay [5] (62.5 μg/mL) is 46.01 ± 1.06%; in assay [5] (125 μg/mL) it was 54.13 ± 0.31%; in assay [5] (250 μg/mL) it was 60.11 ± 1.90%; in assay [5] (500 μg/mL), 68.99 ± 1.88%; in assay [5] (1000 μg/mL), 78.03 ± 1.51%. Further, the “α-Amylase IC50” value on α-amylase came to 125 µg/mL. For the same molecule, the “Percent Inhibition of α-Amylase (Mean ± S.E.M)” value is 40.01 ± 2.06 ^ns % with α-amylase (62.5 μg/mL), 50.11 ± 1.31 % in the assay with α-amylase (125 μg/mL), 59.11 ± 2.13 % with α-amylase (250 μg/mL) and 65.19 ± 1.28 % in the assay on α-amylase (500 μg/mL).
For the molecule `C[C@H]1O[C@H](O[C@H]2[C@H](O)[C@@H](O)[C@@H](O[C@H]3[C@H](O)[C@@H](O)C(O)O[C@@H]3CO)O[C@@H]2CO)[C@H](O)[C@@H](O)[C@@H]1N[C@H]1C=C(CO)[C@@H](O)[C@H](O)[C@H]1O` (stereo partly shown) [Acarbose, reference compound], on α-glucosidase, the “Percent Inhibition of α-Glucosidase (Mean ± S.E.M)” value was 93.72 ± 1.03% and 67.16 ± 1.58% and 58.73 ± 1.09% and 48.76 ± 2.20%. Besides, the “Percent Inhibition of α-Amylase (Mean ± S.E.M)” value in the assay with α-amylase (62.5 μg/mL) turned out to be 48.13 ± 2.09%; in the assay with α-amylase (125 μg/mL), 57.03 ± 1.19%; with α-amylase (250 μg/mL), 66.37 ± 1.18%; in the assay with α-amylase (500 μg/mL), 77.11 ± 1.41%; in the assay with α-amylase (1000 μg/mL), 92.12 ± 0.83%.

Values taken from PMC8036409 (Molecules, 2021).
